Experimental data reported in patent US8637511B2, “Aminopyrimidines useful as kinase inhibitors” (Vertex Pharmaceuticals Incorporated, priority 2005, dated 2014).
Like-named read-outs stand apart in the source and are kept apart here.

Assays:
[1] = molecular target: T1, JAK3 (Homo sapiens, UniProt P52333); assay: biochemical
T1 sequence (P52333 1-1124): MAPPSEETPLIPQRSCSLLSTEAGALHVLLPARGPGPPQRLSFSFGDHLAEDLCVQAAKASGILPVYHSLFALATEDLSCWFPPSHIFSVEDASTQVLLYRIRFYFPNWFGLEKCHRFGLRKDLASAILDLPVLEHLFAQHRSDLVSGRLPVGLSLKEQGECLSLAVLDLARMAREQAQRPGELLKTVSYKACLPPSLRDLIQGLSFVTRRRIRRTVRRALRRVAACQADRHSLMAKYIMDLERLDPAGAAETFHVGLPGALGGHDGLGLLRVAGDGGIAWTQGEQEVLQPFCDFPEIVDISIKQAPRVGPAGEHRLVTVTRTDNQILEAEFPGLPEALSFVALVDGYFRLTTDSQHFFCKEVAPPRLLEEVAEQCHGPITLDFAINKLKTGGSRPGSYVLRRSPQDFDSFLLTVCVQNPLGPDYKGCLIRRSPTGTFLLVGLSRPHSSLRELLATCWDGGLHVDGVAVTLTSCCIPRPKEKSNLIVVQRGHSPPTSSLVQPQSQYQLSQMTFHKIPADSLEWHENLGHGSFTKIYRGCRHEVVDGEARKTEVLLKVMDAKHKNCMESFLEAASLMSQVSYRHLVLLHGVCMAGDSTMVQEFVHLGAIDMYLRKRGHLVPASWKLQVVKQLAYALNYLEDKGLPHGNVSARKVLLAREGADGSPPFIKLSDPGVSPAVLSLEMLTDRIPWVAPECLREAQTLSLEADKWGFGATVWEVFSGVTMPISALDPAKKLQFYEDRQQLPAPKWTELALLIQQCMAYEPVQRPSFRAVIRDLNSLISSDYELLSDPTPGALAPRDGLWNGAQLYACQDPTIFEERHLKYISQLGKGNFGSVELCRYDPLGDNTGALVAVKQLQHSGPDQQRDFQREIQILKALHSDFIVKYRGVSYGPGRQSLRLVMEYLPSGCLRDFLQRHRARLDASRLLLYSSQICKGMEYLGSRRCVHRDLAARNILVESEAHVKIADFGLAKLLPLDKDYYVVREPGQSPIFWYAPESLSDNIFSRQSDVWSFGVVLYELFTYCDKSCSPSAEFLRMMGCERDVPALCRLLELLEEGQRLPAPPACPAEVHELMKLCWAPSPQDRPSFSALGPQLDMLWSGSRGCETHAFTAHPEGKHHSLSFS
Procedure: Reactions were carried out in a kinase buffer containing 100 mM HEPES (pH 7.4), 1 mM DTT, 10 mM MgCl2, 25 mM NaCl, and 0.01% BSA. Substrate concentrations in the assay were 5 μM ATP (200 uCi/μmole ATP) and 1 μM poly(Glu)4Tyr. Reactions were carried out at 25° C. and 1 nM JAK3.
To each well of a 96 well polycarbonate plate was added 1.5 μl of a candidate JAK3 inhibitor along with 50 μl of kinase buffer containing 2 μM poly(Glu)4Tyr and 10 μM ATP. This was then mixed and 50 μl of kinase buffer containing 2 nM JAK3 enzyme was added to start the reaction. After 20 minutes at room temperature (25 C), the reaction was stopped with 50 μl of 20% trichloroacetic acid (TCA) that also contained 0.4 mM ATP. The entire contents of each well were then transferred to a 96 well glass fiber filter plate using a TomTek Cell Harvester. After washing, 60 μl of scintillation fluid was added and ^33P incorporation detected on a Perkin Elmer TopCount.

[2] = test system: Colo205 cells; assay: Analysis of cell proliferation and viability; format: cell-based; conditions: Homo sapiens, COLO 205, Colo205 cells, read-out: IC50 value
[3] = molecular target: T2, Aurora-2 (Aurora A) (Homo sapiens, UniProt O14965); assay: Aurora-2 (Aurora A) inhibition assay, coupled enzyme; format: biochemical; conditions: read-out: Aurora A kinase Ki value
T2 sequence (O14965 1-403): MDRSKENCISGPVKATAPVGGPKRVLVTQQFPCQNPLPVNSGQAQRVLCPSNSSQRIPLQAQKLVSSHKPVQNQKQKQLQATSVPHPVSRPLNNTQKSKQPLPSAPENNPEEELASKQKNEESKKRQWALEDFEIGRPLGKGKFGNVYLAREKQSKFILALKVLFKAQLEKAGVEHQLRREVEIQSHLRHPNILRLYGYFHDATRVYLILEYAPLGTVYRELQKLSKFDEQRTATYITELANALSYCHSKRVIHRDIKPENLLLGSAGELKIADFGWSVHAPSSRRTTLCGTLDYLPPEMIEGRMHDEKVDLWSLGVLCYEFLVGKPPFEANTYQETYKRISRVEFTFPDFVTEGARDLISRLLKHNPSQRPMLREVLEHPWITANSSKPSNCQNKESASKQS
How it was run: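 These rates came from NADH consumption coupled through pyruvate kinase and lactate dehydrogenase (100 mM Hepes pH 7.5, 10 mM MgCl2, 300 μM NADH). Aurora-2 was present at 40 nM, and the reaction ran at 30 °C after a 10 min preincubation.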

Structure (SMILES) | Ki ([1]; read-out: JAK3 Ki value) [nM] | Ki [1] [nM] | IC50 ([2]; incubated for 72 hours) [nM] | Ki [3] [nM] | IC50 ([2]; incubated for 96 hours) [nM]
CC(C)(C)c1cc(Nc2cc(N3CCC3)nc(Sc3ccc(NC(=O)c4ccccc4Cl)cc3)n2)n[nH]1 [Compound 69] | 500 to 2000 |  |  |  | 
Cc1cc(Nc2cc(N3CC(OC(=O)CN(C)C)(C4CC4)C3)nc(Sc3ccc(NC(=O)C4CC4)cc3)n2)n[nH]1 [Compound 119] |  | 10 to 500 | 30 to 200 | ≤ 1 | 
Cc1cnc(Nc2cc(N3CC(F)(C4CC4)C3)nc(Oc3ccc(NC(=O)CC(F)(F)F)cc3)n2)s1 [Compound 181] | ≤ 10 |  | 30 to 200 | ≤ 1 | 
Cc1cc(Nc2cc(N3CCC3)nc(Sc3ccc(NC(=O)Cc4ccccc4Cl)cc3)n2)[nH]n1 [Compound 57] |  | 10 to 500 |  | ≤ 1 | 50 to 1000
Cc1cc(Nc2cc(N3CC(O)(C4CC4)C3)nc(Sc3ccc4nc(C(F)(F)F)n(C)c4c3)n2)[nH]n1 [Compound 155] |  | 10 to 500 |  | ≤ 1 | ≤ 50
Cc1cc(Nc2cc(N3CC(O)(C4CC4)C3)nc(Sc3ccc(NC(=O)C4CC4)c(F)c3)n2)[nH]n1 [Compound 109] | 10 to 500 |  |  | ≤ 1 | 50 to 1000
Cc1cc(Nc2cc(N3CC(C)(C#N)C3)nc(Sc3ccc(NC(=O)CC(F)(F)F)cc3)n2)[nH]n1 [Compound 169] | 10 to 500 |  | 30 to 200 | ≤ 1 | 
COCc1cc(Nc2cc(N3CCC3)nc(Sc3ccc(NC(=O)c4ccccc4Cl)cc3)n2)n[nH]1 [Compound 82] | 500 to 2000 |  |  |  | 
Cc1cc(Nc2cc(N3CC(O)(C4CC4)C3)nc(Sc3ccc4nc(C(F)(F)F)ccc4c3)n2)[nH]n1 [Compound 186] | 10 to 500 |  | 30 to 200 | ≤ 1 | 
CCC(=O)Nc1ccc(Sc2nc(Nc3cc(C)n[nH]3)cc(N3CC(OC(C)(C)C)C3)n2)cc1 [Compound 67] | 10 to 500 |  |  | ≤ 1 | 50 to 1000
Cc1cc(Nc2cc(N3CC(N4CCOCC4)C3)nc(Sc3ccc4nc(CC(F)(F)F)n(C)c4c3)n2)[nH]n1 [Compound 177] |  | 10 to 500 | 30 to 200 | ≤ 1 | 
Cc1cc(Nc2cc(N3CCC3)nc(Sc3ccc(NC(=O)c4ccc(-c5ccccc5)cc4Cl)cc3)n2)[nH]n1 [Compound 83] |  | 10 to 500 | 30 to 200 | ≤ 1 | 
Cc1cc(Nc2cc(N3CC(F)(C4CC4)C3)nc(Sc3ccc(NC(=O)CN(C)C)cc3)n2)[nH]n1 [Compound 152] |  | 500 to 2000 | 30 to 200 | ≤ 1 | 
Cc1cc(Nc2nc(Sc3ccc(NC(=O)CC(F)(F)F)cc3)nc(N3CC(F)(C4CC4)C3)c2F)[nH]n1 [Compound 178] |  | 500 to 2000 | 30 to 200 | ≤ 1 | 
Cc1cc(Nc2cc(N3CC(OC(C)C)C3)nc(Sc3ccc(NC(=O)c4ccccc4Cl)cc3)n2)n[nH]1 [Compound 38] |  | 10 to 500 |  | ≤ 1 | ≤ 50
CCC(=O)Nc1ccc(Sc2nc(Nc3cc(C)n[nH]3)cc(N3CC(N4CCOCC4)C3)n2)cc1 [Compound 68] |  | 10 to 500 |  | ≤ 1 | 50 to 1000
Cc1cc(Nc2cc(N3CC(F)(C4CC4)C3)nc(Sc3ccc(NC(=O)C4(C)CC4)cc3)n2)[nH]n1 [Compound 203] |  | 500 to 2000 | 30 to 200 | ≤ 1 | 
CCC(=O)Nc1ccc(Sc2nc(Nc3cc(C)n[nH]3)cc(N3CC(OC)(C(C)(C)C)C3)n2)cc1 [Compound 90] |  | 10 to 500 |  | ≤ 1 | ≤ 50

Structure (SMILES) | Ki ([1]; read-out: JAK3 Ki value) [nM] | Ki [1] [nM] | IC50 ([2]; incubated for 72 hours) [nM] | Ki [3] [nM] | IC50 ([2]; incubated for 96 hours) [nM]
CC(C)=C1CN(c2cc(Nc3cc(C)n[nH]3)nc(Sc3ccc(NC(=O)CC(F)(F)F)cc3)n2)C1 [Compound 184] |  | 10 to 500 | 30 to 200 | ≤ 1 | 
Cc1cc(Nc2cc(N3CC(F)(C4CC4)C3)nc(Oc3ccc(NC(=O)CC(F)(F)F)cc3)n2)[nH]n1 [Compound 144] |  | 10 to 500 | ≤ 30 | ≤ 1 | 
Cc1cc(Nc2cc(N3CC(C)(O)C3)nc(Sc3ccc(NC(=O)c4ccccc4Cl)cc3)n2)[nH]n1 [Compound 50] | ≤ 10 |  | ≤ 30 | ≤ 1 | ≤ 50
CCC(=O)Nc1ccc(Sc2nc(Nc3cc(C)n[nH]3)cc(N3CC(C)(N4CCOCC4)C3)n2)cc1 [Compound 88] | ≤ 10 |  |  | ≤ 1 | ≤ 50
CCC(=O)Nc1ccc(Sc2nc(Nc3cc(C)n[nH]3)cc(N3CC4(C3)OCC4(C)C)n2)cc1 [Compound 92] |  | ≤ 10 |  | ≤ 1 | ≤ 50
Cc1cc(Nc2cc(N3CC(C)(F)C3)nc(Sc3ccc(NC(=O)CC(F)(F)F)cc3)n2)n[nH]1 [Compound 168, N-(4-(4-(5-methyl-1H-pyrazol-3-ylamino)-6-(3-fluoro-3-methylazetidin-1-yl)pyrimidin-2-ylthio)phenyl)-3,3,3-trifluoropropanamide] | 10 to 500 |  | 30 to 200 | ≤ 1 | 
CCC(=O)Nc1ccc(Sc2nc(Nc3cc(C)n[nH]3)cc(N3CC(C)(N4CCCC4)C3)n2)cc1 [Compound 89] |  | 10 to 500 | ≤ 30 | ≤ 1 | ≤ 50
COC1(C)CN(c2cc(Nc3cc(C)n[nH]3)nc(Sc3ccc(NC(=O)c4ccccc4Cl)cc3)n2)C1 [Compound 51] |  | 10 to 500 | ≤ 30 | ≤ 1 | ≤ 50
Cc1cc(Nc2cc(N3CC(N4CC[C@H](F)C4)C3)nc(Sc3ccc(NC(=O)CC(F)(F)F)cc3)n2)[nH]n1 [Compound 185] | ≤ 10 |  | ≤ 30 | ≤ 1 | 
Cc1cc(Nc2cc(N3CC(F)(C4CC4)C3)nc(Sc3ccc(NS(C)(=O)=O)cc3)n2)[nH]n1 [Compound 151] |  | ≤ 10 | 30 to 200 | ≤ 1 | 
Cc1cc(Nc2cc(N3CC(F)(C4CC4)C3)nc(Sc3cnc4ccccc4c3)n2)[nH]n1 [Compound 206] |  | ≤ 10 | > 200 | ≤ 1 | 
Cc1cc(Nc2cc(N3CCC3)nc(Sc3ccc(NC(=O)c4cnccc4C(F)(F)F)cc3)n2)[nH]n1 [Compound 59] |  |  | > 200 |  | 50 to 1000
Cc1cc(Nc2cc(N3CC(O)(C4CC4)C3)nc(Sc3cc(F)c4nc(C)ccc4c3)n2)[nH]n1 [Compound 172] |  | ≤ 10 | ≤ 30 | ≤ 1 | 
CCOC1CN(c2cc(Nc3cc(C)[nH]n3)nc(Sc3ccc(NC(=O)c4ccccc4Cl)cc3)n2)C1 [Compound 37] | ≤ 10 |  |  | ≤ 1 | 50 to 1000
Cc1cc(Nc2cc(N3CC(C)(C(C)(C)F)C3)nc(Sc3ccc(NC(=O)CC(F)(F)F)cc3)n2)[nH]n1 [Compound 183] | ≤ 10 |  | ≤ 30 | ≤ 1 | 
Cc1cc(Nc2cc(N3CC(N4CCCC4)C3)nc(Sc3ccc(NC(=O)CC(F)(F)F)cc3)n2)[nH]n1 [Compound 204] | 10 to 500 |  | ≤ 30 | ≤ 1 | 
Cc1cc(Nc2cc(N3CC(F)(C4CC4)C3)nc(Sc3ccc(C(=O)NCC(F)(F)F)cc3)n2)[nH]n1 [Compound 205] | 10 to 500 |  | ≤ 30 | ≤ 1 | 
Cc1cc(Nc2cc(N3CC(N4CCOCC4)C3)nc(Sc3ccc4c(c3)CN(CC(F)(F)F)C4=O)n2)[nH]n1 [Compound 173] |  | ≤ 10 | 30 to 200 | ≤ 1 | 
